Assay [1] addresses T1, human recombinant CBL-b (human Biotin CBL-b recombinant protein a.a. 39-426) (Homo sapiens, UniProt Q13191).
T1 construct: human Biotin CBL-b recombinant protein a.a; 39-426; Biotin (biotinylated); made in house
Put plainly: Biochemical assay for CBL-b inhibition (ligand displacement TR-FRET). The class given is binding. As to conditions: 50 nM CBL-b, 0.3 μM Bodipy FL-Probe, read-out: IC50 (CBL-b inhibition, group). An outline of the steps: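 Biotinylated CBL-b (a.a. 39-426, 50 nM final) pre-incubated with compound 60 min at RT in HEPES/NaCl/Triton/BSA/TCEP buffer, then Bodipy FL probe (0.3 μM final) 60 min, then terbium-streptavidin 60 min. TR-FRET read at 665/615 nm; IC50 and % max inhibition from sigmoidal fits.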

For assay [2], the system named is NFAT signaling pathway in Jurkat NFAT reporter cells. Put plainly: Jurkat NFAT reporter assay. Format: cell-based. To be noted: Homo sapiens, 30 min with compound, then soluble anti-human CD3/CD28 antibody for 6 hours, luciferase readout, read-out: EC50 (Group). The gist of the method: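 Jurkat cells bearing an NFAT-RE-driven luciferase reporter (1×10^5 per well) preincubated with Cbl-b inhibitor for 30 min, then stimulated 6 h with soluble anti-CD3/CD28. Luminescence read with Bio-Glo; values are fold change over anti-CD3/CD28-stimulated cells without inhibitor.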
On the technique in general: In a reporter assay the amount or activity of a reporter protein is the signal.

In assay [3] the test system is human PBMCs stimulated with anti-CD3/CD28 Dynabeads. Put plainly: Human PBMC cytokine release assay (IL-2 by ELISA). Format: cell-based. To be noted: Dynabeads CD3/CD28 48 hours, IL-2 ELISA, fold change over baseline, read-out: EC50 (human PBMC cytokine release, group). Here is the method: Peripheral blood mononuclear cells (PBMC) were isolated from healthy human donor using Histopaque (Sigma). The Cbl-inhibitor was added to 1×10^5 cells per well and the plate was incubated for 30 minutes at 37° C. in 5% CO2 at different concentrations with a final DMSO concentration of <0.5%. Following incubation with the Cbl-b inhibitor, human PBMCs were stimulated with Dynabeads™ Human T-Activator CD3/CD28 (Thermo Fisher Scientific) for 48 hours. Cell free supernatant were collected after end of incubation and were analyzed for cytokine secretion, including IL-2 by ELISA (R&D Systems). Readouts were reported as fold change over baseline. Here, baseline was the measurement obtained from human PBMCs stimulated with Dynabeads™ Human T-Activator CD3/CD28, where the cells were not incubated with a Cbl-b inhibitor.

T1 sequence (Q13191 39-426): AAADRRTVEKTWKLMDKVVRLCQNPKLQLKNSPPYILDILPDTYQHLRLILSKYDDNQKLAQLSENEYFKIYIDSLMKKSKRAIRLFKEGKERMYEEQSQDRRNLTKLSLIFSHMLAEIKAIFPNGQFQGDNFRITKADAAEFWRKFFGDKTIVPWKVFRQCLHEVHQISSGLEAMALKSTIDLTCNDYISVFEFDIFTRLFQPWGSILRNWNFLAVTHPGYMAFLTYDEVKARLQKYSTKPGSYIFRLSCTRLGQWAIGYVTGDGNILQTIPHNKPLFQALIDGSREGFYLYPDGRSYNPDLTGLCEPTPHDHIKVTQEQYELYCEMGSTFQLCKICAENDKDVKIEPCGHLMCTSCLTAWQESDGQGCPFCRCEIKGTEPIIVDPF

On to `C[C@H]1CCCN(Cc2cc(Cl)nc(N3Cc4ccc(C5(Cc6nncn6C)COC5)cc4C3=O)c2)C1` [Compound 40, (S)-2-(6-Chloro-4-((3-methylpiperidin-1-yl)methyl)pyridin-2-yl)-6-(3-((4-methyl-4H-1,2,4-triazol-3-yl)methyl)oxetan-3-yl)isoindolin-1-one], for which the IC50 – broadly, the concentration at which inhibition is half-maximal – in assay [1] is less than 80 nM. Also, the values for the EC50 in assay [2] and in assay [3] were less than 300 nM and less than 5000 nM, respectively.
Regarding `C[C@@H]1C[C@H](C)CN(Cc2cc(Cl)nc(N3Cc4ccc(C5(Cc6nncn6C)COC5)cc4C3=O)c2)C1` [Compound 52, 2-(6-Chloro-4-(((3S,5R)-3,5-dimethylpiperidin-1-yl)methyl)pyridin-2-yl)-6-(3-((4-methyl-4H-1,2,4-triazol-3-yl)methyl)oxetan-3-yl)isoindolin-1-one], in assay [1], the IC50 was less than 80 nM. Moreover, the EC50 in assay [2] is less than 300 nM; in assay [3] it was less than 5000 nM.
Taken in the same sequence, the figures for `Cc1nc(CN2CCC[C@H](C)C2)cc(N2Cc3ccc(C4(Cc5nncn5C)COC4)cc3C2=O)n1` [Compound 53, (S)-6-(3-((4-Methyl-4H-1,2,4-triazol-3-yl)methyl)oxetan-3-yl)-2-(2-methyl-6-((3-methylpiperidin-1-yl)methyl)pyrimidin-4-yl)isoindolin-1-one] were less than 80 nM, 300 to 1000 nM and less than 5000 nM.
Regarding `Cc1cc(CN2C[C@H](C)C[C@H](C)C2)cc(N2Cc3ccc(C4(Cc5nncn5C)COC4)cc3C2=O)c1` [Compound 56, 2-(3-(((3S,5R)-3,5-Dimethylpiperidin-1-yl)methyl)-5-methylphenyl)-6-(3-((4-methyl-4H-1,2,4-triazol-3-yl)methyl)oxetan-3-yl)isoindolin-1-one], the IC50 in assay [1] fell in the range of 80 to 300 nM. Moreover, the EC50 is less than 300 nM in assay [2] and less than 5000 nM in assay [3].
Consider `Cn1cnnc1CC1(c2ccc3c(c2)C(=O)N(c2cc(CNCC4CC4)cc(Cl)n2)C3)COC1` [Compound 57, 2-(6-Chloro-4-(((cyclopropylmethyl)amino)methyl)pyridin-2-yl)-6-(3-((4-methyl-4H-1,2,4-triazol-3-yl)methyl)oxetan-3-yl)isoindolin-1-one], for which the IC50 in assay [1] was less than 80 nM. The EC50 is less than 300 nM in assay [2] and less than 5000 nM in assay [3].
Consider `Cc1cc(CN2C[C@@H](C)C[C@H](C)C2)cc(N2Cc3ccc(C4(Cc5nncn5C)COC4)cc3C2=O)c1` [Compound 59, 2-(3-(((3S,5S)-3,5-Dimethylpiperidin-1-yl)methyl)-5-methylphenyl)-6-(3-((4-methyl-4H-1,2,4-triazol-3-yl)methyl)oxetan-3-yl)isoindolin-1-one], for which, in assay [1], the IC50 is 80 to 300 nM. The results for the EC50 in assay [2] and in assay [3] were 300 to 1000 nM and less than 5000 nM, respectively.
For `Cc1cc(CN2C[C@H](C)C[C@H](C)C2)cc(N2Cc3ccc(C4(Cc5nncn5C)COC4)cc3C2=O)n1` [Compound 78, 2-(4-(((3S,5R)-3,5-Dimethylpiperidin-1-yl)methyl)-6-methylpyridin-2-yl)-6-(3-((4-methyl-4H-1,2,4-triazol-3-yl)methyl)oxetan-3-yl)isoindolin-1-one], in assay [1], the IC50 was less than 80 nM. Besides, the EC50 was less than 300 nM in assay [2] and less than 5000 nM in assay [3].
With `Cn1cnnc1CC1(c2ccc3c(c2)C(=O)N(c2cc(CNCC4CC4)cc(C(F)(F)F)n2)C3)COC1` [Compound 80, 2-(4-(((Cyclopropylmethyl)amino)methyl)-6-(trifluoromethyl)pyridin-2-yl)-6-(3-((4-methyl-4H-1,2,4-triazol-3-yl)methyl)oxetan-3-yl)isoindolin-1-one], the IC50 in assay [1] is less than 80 nM. The figures for the EC50 in assay [2] and in assay [3] were less than 300 nM and less than 5000 nM, respectively.

Source of the values: patent US20260226073A1 (AURIGENE ONCOLOGY LIMITED, priority 2023, published 2026).
